From patent US20170189445A1, “XENON ASSOCIATED WITH AN NMDA RECEPTOR ANTAGONIST FOR CONTROLLING TUMOR PROLIFERATION IN THE CENTRAL NERVOUS SYSTEM” (L'Air Liquide, Société Anonyme pour I'Etude et …, priority 2014, published 2017)

Key:
[1] = system: glial cells of astrocyte type and/or precursors thereof; assay: Cell proliferation by tritiated thymidine accumulation in astrocyte-enriched cultures (FCS mitogens); assay type: cell-based, rat; set-up: key to Reduction in proliferation: an absence of response is represented by a “−” sign, synonymous with non-efficacy with respect to cell proliferation; +: a favorable response, synonymous with inhibition of the proliferation of glial cells of astrocyte type; ++: a favorable response, synonymous with inhibition of the proliferation of glial cells of astrocyte type; +++: a favorable response, synonymous with inhibition of the proliferation of glial cells of astrocyte type; ++++=absence of proliferation
Protocol: Cultures are prepared from total brain of embryos, taken from gestating Wistar female rats on day 15.5 of gestation. The method for producing the cultures enriched with astrocytes (cells immunopositive for glial fibrillary acidic protein or GFAP) comprises obtaining a homogeneous cell suspension of the entire embryonic anterior brain by mechanical dissociation, i.e. non-enzymatic dissociation, using Leibovitz L15 medium (Sigma Aldrich). […] The medium used is Minimum Essential Medium (MEM), containing 10% of fetal calf serum (FCS, Biowest) and 10% of horse serum (HS, Sigma Aldrich), 1 g/l of glucose, 2 mM of L-glutamine, 1 mM of sodium pyruvate, non-essential amino acids, and a penicillin/streptomycin cocktail. When confluence is reached (i.e. after 7-10 days of culture), the adherent cells (>90% of astrocytes) are placed in PBS, then detached by tapping the flasks. […] The astrocytes are then cultured in 48-well multiwell plates (Nunc). Approximately 30 000 cells are applied per culture well. The cells are placed in the presence of the same medium as previously, but with a serum supplementation, reduced to 2%. No change of culture medium is carried out throughout the culture period. The proliferation is triggered and maintained by the presence of FCS in the culture medium. The NMDA receptor blocker, memantine (RD Systems), is added to the cultures just before exposure to the xenon. Dibutyryl cyclic AMP (dbcAMP), a lipophilic form of cAMP used as a reference anti-proliferative molecule (Mourlevat et al., Mol Pharmacol, 2003), is added at the same time as the memantine. Once the pharmacological treatments have been carried out, the multiwell dish plates containing the cells in culture and the plate used to humidify the internal compartment of the chamber are placed on a metal base which receives the Plexiglas incubation chamber. The two parts (base and Plexiglas chamber) are butt-joined together by screwing. A gas mixture of interest comprising (% by volume): 20% of O2, 5% of CO2 and 75% of the gas tested is then injected into the incubation chamber, with open inlet and outlet valves, while at the same time controlling the output flow rate by means of a flow meter. The gases tested are nitrogen and xenon. The reference output flow rate, set for air at 10 liters/min, is corrected according to the density of the mixture used. When the CO2 measurement reaches 5% at the outlet, the injection of the gas mixture is stopped and the chamber is made totally airtight by closing the inlet and outlet valves. The exposure chamber is then placed in an enclosure at 37° C. throughout the experimental protocol. After the […] been broken by opening the inlet and outlet valves and unscrewing the chamber from its base, the cultures are placed in the presence of PBS containing 5 mM of glucose and incubated for 2 h with tritiated thymidine (Perkin, 70-90 Ci/mmol; 0.5 μCi/well) in order to analyze the cell proliferation according to a method previously described by Rousseau and colleagues (Mol Pharmacol, 2013). […] These cultures were maintained, as soon as they were placed in culture and up to D3 in vitro, in an atmosphere containing 75% of nitrogen (N2 75) or 75% of xenon (Xe 75), in the presence or absence of memantine (MEM), […] analog of cAMP, dibutyryl-cAMP, used as reference anti-proliferative molecule. At the end of the treatments, the cultures are recovered for a cell proliferation measurement, using tritiated thymidine incorporation as evaluation index. The results are expressed in % (±SEM, n=6) of the mean values of the cultures maintained under 75% of nitrogen (control condition).

[2] = system: glial cells of astrocyte type and/or precursors thereof in the presence of neuronal cells; assay: Cell proliferation by tritiated thymidine incorporation in neuron-glia mixed (mesencephalon) cultures; assay type: cell-based, rat; set-up: key to Inhibition of proliferation: an absence of response is represented by a “−” sign, synonymous with non-efficacy with respect to cell proliferation; +: a favorable response, synonymous with inhibition of the proliferation of glial cells of astrocyte type; ++: a favorable response, synonymous with inhibition of the proliferation of glial cells of astrocyte type; +++: a favorable response, synonymous with inhibition of the proliferation of glial cells of astrocyte type; ++++=absence of proliferation
Protocol: Cultures are prepared from mesencephalon of rat embryos taken from female Wistar rats, on day 15.5 of gestation. The use of the mesencephalon cultures comprises obtaining a homogeneous cell suspension by mechanical dissociation, i.e. non-enzymatic dissociation, of the embryonic tissue, using Leibovitz L15 medium (Sigma Aldrich). Aliquots of this suspension are added to Nunc 48-well multiwell plates, which have been precoated with a thin layer of polyethyleneimine (1 mg/ml, borate buffer, pH 8.3) so as to enable adhesion of the neuronal cells (cf. Toulorge et al., Faseb J, 2011). The seeding density is between approximately 80 000 and 100 000 cells/culture well. The mesencephalon cultures are maintained in MEM culture medium, containing 1 g/l of glucose, 2 mM of L-glutamine, 1 mM of sodium pyruvate, non-essential amino acids and a penicillin/streptomycin cocktail. During the first week of culture, this medium also contains 10% of fetal calf serum (FCS, Biowest) and 10% of horse serum (HS, Sigma Aldrich), but from the second week, the concentrations of the two sera are reduced (Gao et al., J Neurosci, 2002). Up to the time when the effects of the gases of interest are evaluated, the cultures are placed in a conventional enclosure thermostatically controlled at 37° C., in which the CO2 is maintained at 5% by volume and wherein the atmosphere is saturated with water. The glial proliferation process occurs as soon as the cells are placed in culture. It is analyzed during the second week in vitro when the serum supplementation is reduced to 2% or in some cases to 0.1%. After reduction of the FCS and HS concentrations on D7, the NMDA receptor blocker, memantine, is added to the cultures before placing them under a controlled gaseous atmosphere. Once the pharmacological treatments have been carried out, the multiwell plates containing the cells in culture and the plate used for humidifying the internal compartment of the chamber are placed on a metal base which receives the Plexiglas incubation chamber. The two parts (base and Plexiglas chamber) are butt-joined together by screwing. A gas mixture of interest comprising (% by volume): 20% of O2, 5% of CO2 and 75% of gas tested is then injected into the incubation chamber, with open inlet and outlet valves, while at the same time controlling the output flow rate by means of a flow meter. The gases tested are nitrogen and xenon. The reference output flow rate, set for air at 10 liters/min, is corrected according to the density of the mixture used. When the CO2 measurement reaches 5% at the outlet, the injection of the gas mixture is stopped and the chamber is made totally airtight by closing the inlet and outlet valves. The exposure chamber is then placed in an enclosure at 37° C. for the 7 days of the experimental protocol. On D14, after the […] been broken by opening the inlet and outlet valves and unscrewing the incubation chamber from its base, the cultures are subjected to the tritiated-thymidine proliferation test according to the protocol described in example 1, using as a basis the technique described by Rousseau and colleagues (Mol. Pharmacol., 2013). […] Some experiments were also carried out by reducing the concentrations of the 2 types of serum to 0.1%, while maintaining the cells under a nitrogen-enriched or xenon-enriched atmosphere. The cultures are then recovered for a cell proliferation measurement using tritiated thymidine. […]

## CC12CC3CC(C)(C1)CC(N)(C3)C2 [Memantine, memantine]
[1]; 30 pM (so in the source), nitrogen-enriched atmosphere
  anti-proliferative effect: −39.3%
[1]; 30 pM (so in the source), xenon-enriched atmosphere
  anti-proliferative effect: −75.2%
[1]; 1 μM, 75% N2, D0-D3
  Reduction in proliferation: −
[1]; 1 μM, 75% Xe, D0-D3
  Reduction in proliferation: −
[1]; 3 μM, 75% N2, D0-D3
  Reduction in proliferation: −
[1]; 3 μM, 75% Xe, D0-D3
  Reduction in proliferation: −
[1]; 10 μM, 75% N2, D0-D3
  Reduction in proliferation: −
[1]; 10 μM, 75% Xe, D0-D3
  Reduction in proliferation: ++
[1]; 10 μM, xenon-enriched atmosphere, vs cultures under 75% nitrogen
  anti-proliferative effect: −42.5%
[1]; 30 μM, 75% N2, D0-D3
  Reduction in proliferation: ++
[1]; 30 μM, 75% Xe, D0-D3
  Reduction in proliferation: +++
[1]; nitrogen-enriched atmosphere, up to 10 μM
  anti-proliferative effect: no anti-proliferative effect
[2]; 10 μM, 75% N2, sera at 2%, D7-D14
  Inhibition of proliferation: −
[2]; memantine applied under nitrogen
  impact on the proliferation: no impact on the proliferation

## [Xe] [Xe, xenon]
[1]; 75% Xe (20% O2 + 5% CO2), no drug, D0-D3 (3 days)
  Reduction in proliferation: −
[1]; xenon replaces nitrogen (75 vol %), no drug
  anti-proliferative effect: no significant anti-proliferative effect
[2]; 75% Xe, sera at 0.1%, D7-D14
  Inhibition of proliferation: +++
[2]; 75% Xe, sera at 2%, D7-D14 (7 days)
  Inhibition of proliferation: −
[2]; xenon-enriched atmosphere, no memantine
  impact on the proliferation: no impact on the proliferation

## CCCC(=O)Nc1ncnc2c1ncn2[C@@H]1O[C@@H]2COP(=O)(O)O[C@H]2[C@H]1OC(=O)CCC [dbcAMP, Dibutyryl cyclic AMP]
[1]; 1 mM, 75% N2, D0-D3
  Reduction in proliferation: ++
[1]; 1 mM, 75% Xe, D0-D3
  Reduction in proliferation: ++
[1]; atmosphere containing 75 vol % of nitrogen
  proliferation in the presence of serum mitogens: significantly reduced
